Test system: apyrase
Assay: Screen for apyrase inhibitors (Method 1, in vitro phosphate-release absorbance assay)
Assay type: biochemical
Conditions: inhibitor conc at 1 mM stock, 1 hr room temperature, absorbance 630 nm; rounded average of two assay results
Summary of the method: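 Phosphate-release colorimetric assay (Windsor method) in 60 mM Hepes, 3 mM MgCl2, 3 mM CaCl2, 3 mM ATP, pH 6.5, with compound or DMSO control added. Released phosphate developed with ammonium molybdate and ascorbic acid/TCA, then stopped with citrate/acetic acid.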

Going from `O=C(Nc1ccccc1NS(=O)(=O)c1ccc2oc(=O)ccc2c1)c1ccc(Cl)cc1` [I-841, 4-chloro-N-(2-((2-oxo-2H-chromene)-6-sulfonamido)phenyl)benzamide] to `O=C1Cc2cc(S(=O)(=O)Nc3ccccc3NC(=O)c3ccc(Cl)cc3)ccc2N1` [I-843, 4-chloro-N-(2-((2-oxoindoline)-5-sulfonamido)phenyl)benzamide], the “% Inhibition of Apyrase” value falls from 8% to 5%.

Going from `O=C1CCCN1c1ccccc1NS(=O)(=O)c1ccc(Br)cc1` [I-842, 4-bromo-N-(2-(2-oxopyrrolidin-1-yl)phenyl)benzenesulfonamide] to `COc1ccc2c(c1)CCCN2C(=O)c1ccc(S(=O)(=O)Nc2ccccc2C)cc1` [I-872, 4-(6-methoxy-1,2,3,4-tetrahydroquinoline-1-carbonyl)-N-(o-tolyl)benzenesulfonamide], the “% Inhibition of Apyrase” value rises from 5% to 56%.

Compared with `O=C1Cc2cccc(NS(=O)(=O)c3ccc(Cl)cc3)c2N1` [I-844, 4-chloro-N-(2-oxoindolin-7-yl)benzenesulfonamide], `Cc1ccccc1NS(=O)(=O)c1ccc(C(=O)N2c3ccccc3CC2C)cc1` (stereo not drawn) [I-879, 4-(2-methylindoline-1-carbonyl)-N-(o-tolyl)benzenesulfonamide] is higher in “% Inhibition of Apyrase” value: 5% for the first, 53% for the second.

First: O=C(Nc1cc(Cl)ccc1NS(=O)(=O)c1ccccc1F)c1ccccc1 [I-845, N-(5-chloro-2-((2-fluorophenyl)sulfonamido)phenyl)benzamide]
Second: Cc1ccc(Cl)cc1NC(=O)c1ccc(S(=O)(=O)N2CCCc3ccccc32)cc1 [I-863, N-(5-chloro-2-methylphenyl)-4-((3,4-dihydroquinolin-1(2H)-yl)sulfonyl)benzamide]
The “% Inhibition of Apyrase” value of the first is lower: 1% for the first, 59% for the second.

Compared with `Cc1cccc(NS(=O)(=O)c2ccc(C(=O)Nc3cccc(C#N)c3)cc2)c1C` [I-855, N-(3-cyanophenyl)-4-(N-(2,3-dimethylphenyl)sulfamoyl)benzamide], `Cc1ccc(NS(=O)(=O)c2ccc(C(=O)Nc3ccc(C)c(C)c3)cc2)cc1` [I-888, N-(3,4-dimethylphenyl)-4-(N-(p-tolyl)sulfamoyl)benzamide] is lower in “% Inhibition of Apyrase” value: 82% for the first, 43% for the second.

First: CC1Cc2ccccc2N1C(=O)c1ccc(S(=O)(=O)Nc2ccccc2)cc1 (stereo not drawn) [I-857, 4-(2-methylindoline-1-carbonyl)-N-phenylbenzenesulfonamide]
Second: O=C(c1ccc(S(=O)(=O)Nc2ccccc2)cc1)N1CCc2ccccc21 [I-860, 4-(indoline-1-carbonyl)-N-phenylbenzenesulfonamide]
The “% Inhibition of Apyrase” value of the first is higher: 76% for the first, 71% for the second.

Compared with `COc1ccc2c(c1)CCCN2C(=O)c1ccc(S(=O)(=O)Nc2ccc(F)cc2)cc1` [I-858, N-(4-fluorophenyl)-4-(6-methoxy-1,2,3,4-tetrahydroquinoline-1-carbonyl)benzenesulfonamide], `COc1ccc2c(c1)CCCN2C(=O)c1ccc(S(=O)(=O)Nc2ccccc2)cc1` [I-871, 4-(6-methoxy-1,2,3,4-tetrahydroquinoline-1-carbonyl)-N-phenylbenzenesulfonamide] is lower in “% Inhibition of Apyrase” value: 76% for the first, 56% for the second.

Compared with `Cc1ccc(NC(=O)c2ccc(C(=O)Nc3ccc(C)cc3)cc2)cc1` [I-859, N1,N4-di-p-tolylterephthalamide], `CNC(=O)c1ccc(NC(=O)c2ccc(S(=O)(=O)Nc3ccc(C)cc3)cc2)cc1` [I-874, N-methyl-4-(4-(N-(p-tolyl)sulfamoyl)benzamido)benzamide] is lower in “% Inhibition of Apyrase” value: 72% for the first, 56% for the second.

First: CSc1cccc(NC(=O)c2ccc(C(=O)Nc3cccc(SC)c3)cc2)c1 [I-861, N1,N4-bis(3-(methylthio)phenyl)terephthalamide]
Second: O=C(Nc1ccc2c(c1)OCO2)c1ccc(C(=O)Nc2ccc3c(c2)OCO3)cc1 [I-876, N1,N4-bis(benzo[d][1,3]dioxol-5-yl)terephthalamide]
The “% Inhibition of Apyrase” value of the first is higher: 68% for the first, 54% for the second.

Going from `Cc1ccc(NS(=O)(=O)c2ccc(C(=O)Nc3ccc(C)cc3Br)cc2)cc1` [I-862, N-(2-bromo-4-methylphenyl)-4-(N-(p-tolyl)sulfamoyl)benzamide] to `Cc1ccc(NS(=O)(=O)c2ccc(C(=O)N3CCc4cc(S(N)(=O)=O)ccc43)cc2)cc1` [I-884, 1-(4-(N-(p-tolyl)sulfamoyl)benzoyl)indoline-5-sulfonamide], the “% Inhibition of Apyrase” value falls from 61% to 48%.

First: CC(C)c1ccc(NC(=O)c2ccc(S(=O)(=O)N3CCCc4ccccc43)cc2)cc1 [I-864, 4-((3,4-dihydroquinolin-1(2H)-yl)sulfonyl)-N-(4-isopropylphenyl)benzamide]
Second: Cc1nc2ccc(NC(=O)c3ccc(S(=O)(=O)N4CCCc5ccccc54)cc3)cc2s1 [I-889, 4-((3,4-dihydroquinolin-1(2H)-yl)sulfonyl)-N-(2-methylbenzo[d]thiazol-6-yl)benzamide]
The “% Inhibition of Apyrase” value of the first is higher: 59% for the first, 39% for the second.

Going from `CN(c1ccccc1)S(=O)(=O)c1ccc(C(=O)N2CCc3ccccc32)cc1` [I-865, 4-(indoline-1-carbonyl)-N-methyl-N-phenylbenzenesulfonamide] to `COc1ccccc1N(C)S(=O)(=O)c1ccc(C(=O)N2CCc3ccccc32)cc1` [I-870, 4-(indoline-1-carbonyl)-N-(2-methoxyphenyl)-N-methylbenzenesulfonamide], the “% Inhibition of Apyrase” value falls from 59% to 57%.

First: COc1ccc2c(c1)CCCN2C(=O)c1ccc(S(=O)(=O)N2CCCc3ccccc32)cc1 [I-866, (4-((3,4-dihydroquinolin-1(2H)-yl)sulfonyl)phenyl)(6-methoxy-3,4-dihydroquinolin-1(2H)-yl)methanone]
Second: COc1ccc2c(c1)CCCN2C(=O)c1ccc(S(=O)(=O)Nc2ccccc2F)cc1 [I-883, N-(2-fluorophenyl)-4-(6-methoxy-1,2,3,4-tetrahydroquinoline-1-carbonyl)benzenesulfonamide]
The “% Inhibition of Apyrase” value of the first is higher: 58% for the first, 51% for the second.

Compared with `COc1ccccc1N(C)S(=O)(=O)c1ccc(C(=O)N2CCSc3ccccc32)cc1` [I-867, 4-(3,4-dihydro-2H-benzo[b][1,4]thiazine-4-carbonyl)-N-(2-methoxyphenyl)-N-methylbenzenesulfonamide], `COc1ccccc1N(C)S(=O)(=O)c1ccc(C(=O)N2CCCSc3ccccc32)cc1` [I-878, N-(2-methoxyphenyl)-N-methyl-4-(2,3,4,5-tetrahydrobenzo[b][1,4]thiazepine-5-carbonyl)benzenesulfonamide] is lower in “% Inhibition of Apyrase” value: 58% for the first, 54% for the second.

Going from `CCN(CC)S(=O)(=O)c1cccc(NC(=O)c2ccc(S(=O)(=O)N3CCCc4ccccc43)cc2)c1` [I-868, N-(3-(N,N-diethylsulfamoyl)phenyl)-4-((3,4-dihydroquinolin-1(2H)-yl)sulfonyl)benzamide] to `CCN(C(=O)c1ccc(S(=O)(=O)N2CCCc3ccccc32)cc1)c1ccccc1` [I-885, 4-((3,4-dihydroquinolin-1(2H)-yl)sulfonyl)-N-ethyl-N-phenylbenzamide], the “% Inhibition of Apyrase” value falls from 58% to 47%.

Compared with `COc1ccccc1N(C)S(=O)(=O)c1ccc(C(=O)N2CCc3ccc([N+](=O)[O-])cc32)cc1` [I-869, N-(2-methoxyphenyl)-N-methyl-4-(6-nitroindoline-1-carbonyl)benzenesulfonamide], `COc1ccc([N+](=O)[O-])cc1NS(=O)(=O)c1ccc(C(=O)N2CCc3ccccc32)cc1` [I-892, 4-(indoline-1-carbonyl)-N-(2-methoxy-5-nitrophenyl)benzenesulfonamide] is lower in “% Inhibition of Apyrase” value: 57% for the first, 29% for the second.

Going from `COc1ccc(C(C)(C)C)cc1NC(=O)c1ccc(S(=O)(=O)N(C)c2ccccc2OC)cc1` [I-873, N-(5-(tert-butyl)-2-methoxyphenyl)-4-(N-(2-methoxyphenyl)-N-methylsulfamoyl)benzamide] to `COc1ccccc1NC(=O)c1ccc(S(=O)(=O)N(C)c2ccccc2OC)cc1` [I-880, N-(2-methoxyphenyl)-4-(N-(2-methoxyphenyl)-N-methylsulfamoyl)benzamide], the “% Inhibition of Apyrase” value falls from 56% to 53%.

Going from `O=C(Nc1ccc2c(c1)OCCO2)c1ccc(C(=O)Nc2ccc3c(c2)OCCO3)cc1` [I-875, N1,N4-bis(2,3-dihydrobenzo[b][1,4]dioxin-6-yl)terephthalamide] to `COc1ccc(NS(=O)(=O)c2ccc(C(=O)Nc3ccc4c(c3)OCCO4)cc2)cc1` [I-887, N-(2,3-dihydrobenzo[b][1,4]dioxin-6-yl)-4-(N-(4-methoxyphenyl)sulfamoyl)benzamide], the “% Inhibition of Apyrase” value falls from 55% to 43%.

Compared with `COc1ccccc1N(C)S(=O)(=O)c1ccc(C(=O)N2CCCc3ccccc32)cc1` [I-877, N-(2-methoxyphenyl)-N-methyl-4-(1,2,3,4-tetrahydroquinoline-1-carbonyl)benzenesulfonamide], `CN(c1ccccc1)S(=O)(=O)c1ccc(C(=O)N2CC(=O)Nc3ccccc32)cc1` [I-890, N-methyl-4-(3-oxo-1,2,3,4-tetrahydroquinoxaline-1-carbonyl)-N-phenylbenzenesulfonamide] is lower in “% Inhibition of Apyrase” value: 54% for the first, 32% for the second.

Compared with `CC(=O)c1cc2c(cc1NC(=O)c1ccc(S(=O)(=O)N3CCCc4ccccc43)cc1)OCO2` [I-881, N-(6-acetylbenzo[d][1,3]dioxol-5-yl)-4-((3,4-dihydroquinolin-1(2H)-yl)sulfonyl)benzamide], `O=C(Nc1ccc(NS(=O)(=O)c2ccc3c(c2)OCCO3)cc1)c1cccc(N2CCCC2=O)c1` [I-886, N-(4-((2,3-dihydrobenzo[b][1,4]dioxine)-6-sulfonamido)phenyl)-3-(2-oxopyrrolidin-1-yl)benzamide] is lower in “% Inhibition of Apyrase” value: 53% for the first, 43% for the second.

Going from `COc1ccc(NC(=O)c2cccc(S(=O)(=O)Nc3ccc4c(c3)OCO4)c2)cc1Cl` [I-882, 3-(N-(benzo[d][1,3]dioxol-5-yl)sulfamoyl)-N-(3-chloro-4-methoxyphenyl)benzamide] to `Cc1ccc(NS(=O)(=O)c2ccc(C(=O)N3CC4CCCN4Cc4ccccc43)cc2)cc1` (stereo not drawn) [I-891, 4-(2,3,5,10,11,11a-hexahydro-1H-benzo[e]pyrrolo[1,2-a][1,4]diazepine-10-carbonyl)-N-(p-tolyl)benzenesulfonamide], the “% Inhibition of Apyrase” value falls from 53% to 30%.

Reference: US12685312B2, “Sulfonamide apyrase inhibitors” (Texas Crop Science, Inc., priority 2022, dated 2026)
